In patent publication US20240050428A1 (Cullgen (Shanghai), Inc., priority 2020, published 2024) one finds IC50 data, which are given here for 18 compounds.

Structures are written as SMILES. Where two headings read alike, the source gives them in different places.

One assay relates to MV4;11 cells. Briefly: Cell viability assay (CellTiter-Glo) in MV4;11 cells, alone or with gilteritinib. The assay is classed as cell-based. As to conditions: Homo sapiens, MV4-11, 72 h, MV4;11 cells, three days, CellTiter-Glo, read-out: MV4. On the technique in general: In ATP-based viability assays light output follows the ATP content of the culture.
In another assay the test system is MOLM-13 cells. Kind of assay: Cell viability assay (CellTiter-Glo) in MOLM-13 cells, alone or with gilteritinib. The assay is classed as cell-based. As to conditions: Homo sapiens, MOLM-13, 72 h, MOLM-13 cells, three days, CellTiter-Glo.
Where [1] appears, read: compound alone (without gilteritinib), 11 IC50.
[2] abbreviates: with gilteritinib 10 nM, 11 IC50 gilteritinib.
Setting [3] is: compound alone (without gilteritinib), read-out: MOLM-13 IC50.
The mark [4] stands for this setting: with gilteritinib 20 nM, read-out: MOLM-13 IC50 gilteritinib.

On to `O=C1CCC(N2C(=O)c3ccc(NC[C@H]4C[C@H](n5cc(-c6nccc7ccncc67)c(C6CC6)n5)C4)cc3C2=O)C(=O)N1` (stereo partly drawn) [GS-284, 5-(((trans-3-(3-Cyclopropyl-4-(2,7-naphthyridin-1-yl)-1H-pyrazol-1-yl)cyclobutyl)methyl)amino)-2-(2,6-dioxopiperidin-3-yl)isoindoline-1,3-dione], for which the IC50 in the assay with MV4;11 cells (setting [1]), in the assay on MV4;11 cells (setting [2]), in the assay with MOLM-13 cells (setting [3]) and with MOLM-13 cells (setting [4]) was less than 10 nM in each case.
Take `O=C1CCC(N2C(=O)c3ccc(NC[C@H]4C[C@H](n5cc(-c6cc7nccnc7cn6)c(C6CC6)n5)C4)cc3C2=O)C(=O)N1` (stereo partly drawn) [GS-285, 5-(((trans-3-(3-Cyclopropyl-4-(pyrido[3,4-b]pyrazin-7-yl)-1H-pyrazol-1-yl)cyclobutyl)methyl)amino)-2-(2,6-dioxopiperidin-3-yl)isoindoline-1,3-dione]: the IC50 was 10 to 100 nM with MV4;11 cells (setting [1]), less than 10 nM in the assay with MV4;11 cells (setting [2]), 100 to 1000 nM in the assay with MOLM-13 cells (setting [3]) and 10 to 100 nM in the assay on MOLM-13 cells (setting [4]).
For the compound `O=C1CCC(N2C(=O)c3ccc(NC[C@H]4C[C@H](n5cc(-c6nccc7cccnc67)c(C6CC6)n5)C4)cc3C2=O)C(=O)N1` (stereo partly drawn) [GS-286, 5-(((trans-3-(3-Cyclopropyl-4-(1,7-naphthyridin-8-yl)-1H-pyrazol-1-yl)cyclobutyl)methyl)amino)-2-(2,6-dioxopiperidin-3-yl)isoindoline-1,3-dione], the IC50 in the assay on MV4;11 cells (setting [1]), in the assay on MV4;11 cells (setting [2]), with MOLM-13 cells (setting [3]) and in the assay on MOLM-13 cells (setting [4]) was less than 10 nM each time.
For the compound `O=C1CCC(N2C(=O)c3ccc(NC[C@H]4C[C@H](n5cc(-c6ncccc6OC(F)(F)F)c(C6CC6)n5)C4)cc3C2=O)C(=O)N1` (stereo partly drawn) [GS-287, 5-(((trans-3-(3-Cyclopropyl-4-(3-(trifluoromethoxy)pyridin-2-yl)-1H-pyrazol-1-yl)cyclobutyl)methyl)amino)-2-(2,6-dioxopiperidin-3-yl)isoindoline-1,3-dione], the IC50 with MV4;11 cells (setting [1]), in the assay with MV4;11 cells (setting [2]), with MOLM-13 cells (setting [3]) and in the assay with MOLM-13 cells (setting [4]) was less than 10 nM throughout.
Turning to `O=C1CCC(N2C(=O)c3ccc(NC[C@H]4C[C@H](n5cc(-c6cc7[nH]ncc7cn6)c(C6CC6)n5)C4)cc3C2=O)C(=O)N1` (stereo partly drawn) [GS-288, 5-(((trans-3-(3-Cyclopropyl-4-(1H-pyrazolo[4,3-c]pyridin-6-yl)-1H-pyrazol-1-yl)cyclobutyl)methyl)amino)-2-(2,6-dioxopiperidin-3-yl)isoindoline-1,3-dione], the IC50 lay within 100 to 1000 nM in the assay on MV4;11 cells (setting [1]), 10 to 100 nM in the assay with MV4;11 cells (setting [2]), 100 to 1000 nM in the assay with MOLM-13 cells (setting [3]) and 10 to 100 nM in the assay on MOLM-13 cells (setting [4]).
As for `O=C1CCC(N2C(=O)c3ccc(NC[C@H]4C[C@H](n5cc(-c6ccccc6F)c(C6CC6)n5)C4)cc3C2=O)C(=O)N1` (stereo partly drawn) [GS-289, 5-(((trans-3-(3-Cyclopropyl-4-(2-fluorophenyl)-1H-pyrazol-1-yl)cyclobutyl)methyl)amino)-2-(2,6-dioxopiperidin-3-yl)isoindoline-1,3-dione], the IC50 is 10 to 100 nM in the assay on MV4;11 cells (setting [1]), less than 10 nM in the assay with MV4;11 cells (setting [2]), 100 to 1000 nM with MOLM-13 cells (setting [3]) and 10 to 100 nM with MOLM-13 cells (setting [4]).
As to `O=C1CCC(N2C(=O)c3ccc(NC[C@H]4C[C@H](n5cc(-c6cc(F)ccn6)c(C6CC6)n5)C4)cc3C2=O)C(=O)N1` (stereo partly drawn) [GS-290, 5-(((trans-3-(3-Cyclopropyl-4-(4-fluoropyridin-2-yl)-1H-pyrazol-1-yl)cyclobutyl)methyl)amino)-2-(2,6-dioxopiperidin-3-yl)isoindoline-1,3-dione], the IC50 was more than 1000 nM in the assay on MV4;11 cells (setting [1]), 10 to 100 nM with MV4;11 cells (setting [2]), more than 1000 nM in the assay with MOLM-13 cells (setting [3]) and 100 to 1000 nM in the assay on MOLM-13 cells (setting [4]).
Regarding `O=C1CCC(N2C(=O)c3ccc(NC[C@H]4C[C@H](n5cc(-c6nccc7cc[nH]c67)c(C6CC6)n5)C4)cc3C2=O)C(=O)N1` (stereo partly drawn) [GS-291, 5-(((trans-3-(3-Cyclopropyl-4-(1H-pyrrolo[2,3-c]pyridin-7-yl)-1H-pyrazol-1-yl)cyclobutyl)methyl)amino)-2-(2,6-dioxopiperidin-3-yl)isoindoline-1,3-dione], the IC50 is more than 1000 nM with MV4;11 cells (setting [1]), 10 to 100 nM in the assay on MV4;11 cells (setting [2]), more than 1000 nM with MOLM-13 cells (setting [3]) and 10 to 100 nM in the assay with MOLM-13 cells (setting [4]).
Regarding `CN1CC(Nc2cccc(-c3cn([C@H]4C[C@H](CNc5ccc6c(c5)C(=O)N(C5CCC(=O)NC5=O)C6=O)C4)nc3C3CC3)n2)C1` (stereo partly drawn) [GS-292, 5-(((trans-3-(3-Cyclopropyl-4-(6-((1-methylazetidin-3-yl)amino)pyridin-2-yl)-1H-pyrazol-1-yl)cyclobutyl)methyl)amino)-2-(2,6-dioxopiperidin-3-yl)isoindoline-1,3-dione], the IC50 with MV4;11 cells (setting [1]), in the assay with MV4;11 cells (setting [2]), with MOLM-13 cells (setting [3]) and in the assay with MOLM-13 cells (setting [4]) was more than 1000 nM in each case.
For the compound `O=C1CCC(N2C(=O)c3ccc(NC[C@H]4C[C@H](n5cc(-c6cc7cn[nH]c7cn6)c(C6CC6)n5)C4)cc3C2=O)C(=O)N1` (stereo partly drawn) [GS-293, 5-(((trans-3-(3-Cyclopropyl-4-(1H-pyrazolo[3,4-c]pyridin-5-yl)-1H-pyrazol-1-yl)cyclobutyl)methyl)amino)-2-(2,6-dioxopiperidin-3-yl)isoindoline-1,3-dione], the IC50 in the assay with MV4;11 cells (setting [1]) was 100 to 1000 nM; in the assay with MV4;11 cells (setting [2]), 10 to 100 nM; in the assay with MOLM-13 cells (setting [3]) it was more than 1000 nM; in the assay with MOLM-13 cells (setting [4]), 100 to 1000 nM.
Consider `O=C1CCC(N2C(=O)c3ccc(NC[C@H]4C[C@H](n5cc(-c6cc(NC7CCNCC7)ccn6)c(C6CC6)n5)C4)cc3C2=O)C(=O)N1` (stereo partly drawn) [GS-294, 5-(((trans-3-(3-Cyclopropyl-4-(4-(piperidin-4-ylamino)pyridin-2-yl)-1H-pyrazol-1-yl)cyclobutyl)methyl)amino)-2-(2,6-dioxopiperidin-3-yl)isoindoline-1,3-dione], for which the IC50 in the assay with MV4;11 cells (setting [1]), in the assay on MV4;11 cells (setting [2]), in the assay with MOLM-13 cells (setting [3]) and in the assay with MOLM-13 cells (setting [4]) was more than 1000 nM each time.
Regarding `CN1CCC(Nc2ccnc(-c3cn([C@H]4C[C@H](CNc5ccc6c(c5)C(=O)N(C5CCC(=O)NC5=O)C6=O)C4)nc3C3CC3)c2)CC1` (stereo partly drawn) [GS-295, 5-(((trans-3-(3-Cyclopropyl-4-(4-((1-methylpiperidin-4-yl)amino)pyridin-2-yl)-1H-pyrazol-1-yl)cyclobutyl)methyl)amino)-2-(2,6-dioxopiperidin-3-yl)isoindoline-1,3-dione], the IC50 in the assay with MV4;11 cells (setting [1]), in the assay on MV4;11 cells (setting [2]), in the assay with MOLM-13 cells (setting [3]) and in the assay with MOLM-13 cells (setting [4]) was more than 1000 nM in each case.
For the compound `O=C1CCC(N2C(=O)c3ccc(NC[C@H]4C[C@H](n5cc(-c6ncccc6F)c(C6CC6)n5)C4)cc3C2=O)C(=O)N1` (stereo partly drawn) [GS-296, 5-(((trans-3-(3-Cyclopropyl-4-(3-fluoropyridin-2-yl)-1H-pyrazol-1-yl)cyclobutyl)methyl)amino)-2-(2,6-dioxopiperidin-3-yl)isoindoline-1,3-dione], the IC50 was in the range of 10 to 100 nM with MV4;11 cells (setting [1]), 10 to 100 nM in the assay with MV4;11 cells (setting [2]), 100 to 1000 nM in the assay with MOLM-13 cells (setting [3]) and 10 to 100 nM in the assay with MOLM-13 cells (setting [4]).
For `O=C1CCC(N2C(=O)c3ccc(NC[C@H]4C[C@H](n5cc(-c6ccc(N7CCNCC7)cn6)c(C6CC6)n5)C4)cc3C2=O)C(=O)N1` (stereo partly drawn) [GS-297, 5-(((trans-3-(3-Cyclopropyl-4-(5-(piperazin-1-yl)pyridin-2-yl)-1H-pyrazol-1-yl)cyclobutyl)methyl)amino)-2-(2,6-dioxopiperidin-3-yl)isoindoline-1,3-dione], the IC50 in the assay on MV4;11 cells (setting [1]), with MV4;11 cells (setting [2]), in the assay on MOLM-13 cells (setting [3]) and in the assay on MOLM-13 cells (setting [4]) was more than 1000 nM each time.
On to `CN1CCN(c2ccc(-c3cn([C@H]4C[C@H](CNc5ccc6c(c5)C(=O)N(C5CCC(=O)NC5=O)C6=O)C4)nc3C3CC3)nc2)CC1` (stereo partly drawn) [GS-298, 5-(((trans-3-(3-Cyclopropyl-4-(5-(4-methylpiperazin-1-yl)pyridin-2-yl)-1H-pyrazol-1-yl)cyclobutyl)methyl)amino)-2-(2,6-dioxopiperidin-3-yl)isoindoline-1,3-dione], for which the IC50 in the assay with MV4;11 cells (setting [1]), in the assay on MV4;11 cells (setting [2]), with MOLM-13 cells (setting [3]) and with MOLM-13 cells (setting [4]) was more than 1000 nM in each case.
For the compound `O=C1CCC(N2C(=O)c3ccc(NC[C@H]4C[C@H](n5cc(-c6nccc7[nH]ncc67)c(C6CC6)n5)C4)cc3C2=O)C(=O)N1` (stereo partly drawn) [GS-299, 5-(((trans-3-(3-Cyclopropyl-4-(1H-pyrazolo[4,3-c]pyridin-4-yl)-1H-pyrazol-1-yl)cyclobutyl)methyl)amino)-2-(2,6-dioxopiperidin-3-yl)isoindoline-1,3-dione], the IC50 in the assay on MV4;11 cells (setting [1]) is less than 10 nM; with MV4;11 cells (setting [2]) it was less than 10 nM; in the assay with MOLM-13 cells (setting [3]), 10 to 100 nM; in the assay on MOLM-13 cells (setting [4]) it was less than 10 nM.
`CNc1ccc(-c2cn([C@H]3C[C@H](CNc4ccc5c(c4)C(=O)N(C4CCC(=O)NC4=O)C5=O)C3)nc2C2CC2)nc1` (stereo partly drawn) [GS-301, 5-(((trans-3-(3-Cyclopropyl-4-(5-(methylamino)pyridin-2-yl)-1H-pyrazol-1-yl)cyclobutyl)methyl)amino)-2-(2,6-dioxopiperidin-3-yl)isoindoline-1,3-dione]: the IC50 was more than 1000 nM in the assay on MV4;11 cells (setting [1]), 100 to 1000 nM in the assay with MV4;11 cells (setting [2]), more than 1000 nM in the assay on MOLM-13 cells (setting [3]) and 100 to 1000 nM with MOLM-13 cells (setting [4]).
Take `O=C1CCC(N2C(=O)c3ccc(NC[C@H]4C[C@H](n5cc(-c6ccc(NC7CCNCC7)cn6)c(C6CC6)n5)C4)cc3C2=O)C(=O)N1` (stereo partly drawn) [GS-302, 5-(((trans-3-(3-Cyclopropyl-4-(5-(piperidin-4-ylamino)pyridin-2-yl)-1H-pyrazol-1-yl)cyclobutyl)methyl)amino)-2-(2,6-dioxopiperidin-3-yl)isoindoline-1,3-dione]: the IC50 with MV4;11 cells (setting [1]), in the assay with MV4;11 cells (setting [2]), in the assay on MOLM-13 cells (setting [3]) and in the assay with MOLM-13 cells (setting [4]) was more than 1000 nM throughout.
